This experiment deals with antidiuretic response to arginine vasopressin (ADH). The experiment can be described thus: Anti-antidiuretic: antagonism of the antidiuretic response to subsequent injections of vasopressin. Format: in vivo, rats. Here is the method: Activity as antidiuretic agonists was determined by intravenous injection of the compounds being evaluated in ethanol-anesthesized water-loaded rats in accordance with Sawyer, Endocrinology, vol. 63 (1958) at 694. Antagonism of the response to subsequent injections of vasopressin was tested as described by Sawyer et al., Science, vol. 212 (1981) at 49.
Antagonistic potencies were determined and expressed as "effective doses" and pA2 values. The "effective dose" is defined as the dose (in nanomoles per kilogram) that reduces the response seen from 2x units of agonist injected 20 min after the dose of antagonist to the response with 1x units of agonist. Estimated in vivo "pA2 " values represent the negative logarithms of the effective doses, divided by the estimated volume of distribution (67 ml/kg).

The mark [1] stands for this setting: Table 2, estimated in vivo pA2, volume of distribution 67 ml/kg.

Starred links: 1 amine or outer side, 2 acyl side, 3 side chain; linkers in the order of their positions; H or OH if unused. Positions of bridges follow the written chain, without caps; N, C: chain ends. Non-standard residues stand in square brackets, D forms with d. Residues, ends and D or L forms follow the SMILES beside them. X1 = O=C(CC1(S[*:2])CCCCC1)[*:1]; Cha = N[C@@H](CC1CCCCC1)C(=O)O; Orn = NCCC[C@H](N)C(=O)O; Abu = CC[C@H](N)C(=O)O

For the compound `N=C(N)NCCC[C@H](NC(=O)[C@@H]1CCCN1C(=O)[C@@H]1CSSC2(CCCCC2)CC(=O)N[C@H](Cc2ccccc2)C(=O)N[C@@H](Cc2ccccc2)C(=O)N[C@@H](CCCCN)C(=O)N[C@@H](CC(N)=O)C(=O)N1)C(=O)NCC(N)=O` [d(CH2)5 D-Phe^2 Lys^4 AVP, [1-(β-mercapto-β,β-cyclopentamethylenepropionic acid), 2-D-phenylalanine, 4-lysine]-arginine vasopressin] ([dF]FKNCPRG-NH2; linker N-5 via X1), under setting [1], the “Anti-Antidiuretic pA2” value is reported as 7.22.
Regarding `CC[C@@H](C)[C@H]1NC(=O)CC2(CCCCC2)SSC[C@@H](C(=O)N2CCC[C@H]2C(=O)N[C@@H](CCCNC(=N)N)C(=O)NCC(N)=O)NC(=O)[C@H](CC(N)=O)NC(=O)[C@H]([C@@H](C)O)NC(=O)[C@H](Cc2ccccc2)NC1=O` [d(CH2)5 D-Ile^2 Thr^4 AVP, [1-(β-mercapto-β,β-cyclopentamethylenepropionic acid), 2-D-isoleucine, 4-threonine]-arginine vasopressin] ([dI]FTNCPRG-NH2; linker N-5 via X1), under setting [1], the “Anti-Antidiuretic pA2” value is listed as 7.91.
Turning to `CC[C@@H](C)[C@H]1NC(=O)CC2(CCCCC2)SSC[C@@H](C(=O)N2CCC[C@H]2C(=O)N[C@@H](CCCNC(=N)N)C(=O)NCC(N)=O)NC(=O)[C@H](CC(N)=O)NC(=O)[C@H]([C@@H](C)CC)NC(=O)[C@H](Cc2ccccc2)NC1=O` [d(CH2)5 D-Ile^2 Ile^4 AVP, [1-(β-mercapto-β,β-cyclopentamethylenepropionic acid), 2-D-isoleucine, 4-isoleucine]-arginine vasopressin] ([dI]FINCPRG-NH2; linker N-5 via X1), under setting [1], the “Anti-Antidiuretic pA2” value is 8.04.
Turning to `CC[C@H](C)[C@@H]1NC(=O)[C@H](Cc2ccccc2)NC(=O)[C@@H](Cc2ccccc2)NC(=O)CC2(CCCCC2)SSC[C@@H](C(=O)N2CCC[C@H]2C(=O)N[C@@H](CCCNC(=N)N)C(=O)NCC(N)=O)NC(=O)[C@H](CC(N)=O)NC1=O` [d(CH2)5 D-Phe^2 Ile^4 AVP, [1-(β-mercapto-β,β-cyclopentamethylenepropionic acid), 2-D-phenylalanine, 4-isoleucine]-arginine vasopressin] ([dF]FINCPRG-NH2; linker N-5 via X1), the “Anti-Antidiuretic pA2” value under setting [1] is given as 8.24.
For `CCOc1ccc(C[C@@H]2NC(=O)CC3(CCCCC3)SSC[C@@H](C(=O)N3CCC[C@H]3C(=O)N[C@@H](CCCCN)C(=O)NCC(N)=O)NC(=O)[C@H](CC(N)=O)NC(=O)[C@H](C(C)C)NC(=O)[C@H](Cc3ccccc3)NC2=O)cc1` [d(CH2)5 Tyr(Et)^2 Val^4 Lys^8 VP] (Y(Et)FVNCPKG-NH2; linker N-5 via X1), the “Anti-Antidiuretic pA2” value (rat, in vivo) amounted to 7.29.
`CCOc1ccc(C[C@H]2NC(=O)CC3(CCCCC3)SSC[C@@H](C(=O)N3CCC[C@H]3C(=O)N[C@@H](CCCCN)C(=O)NCC(N)=O)NC(=O)[C@H](CC(N)=O)NC(=O)[C@H](C(C)C)NC(=O)[C@H](Cc3ccccc3)NC2=O)cc1` [d(CH2)5 D-Tyr(Et)^2 Val^4 Lys^8 VP] ([dY](Et)FVNCPKG-NH2; linker N-5 via X1): the “Anti-Antidiuretic pA2” value (rat, in vivo) is given as 7.72.
For the compound `CC[C@@H]1NC(=O)[C@H](Cc2ccccc2)NC(=O)[C@@H]([C@H](C)CC)NC(=O)CC2(CCCCC2)SSC[C@@H](C(=O)N2CCC[C@H]2C(=O)N[C@@H](CCCNC(=N)N)C(=O)NCC(N)=O)NC(=O)[C@H](CC(N)=O)NC1=O` [d(CH2)5 D-Ile^2 Abu^4 AVP, [1-(β-mercapto-β,β-cyclopentamethylenepropionic acid), 2-D-isoleucine, 4-α-aminobutyric acid]-arginine vasopressin] ([dI]F[Abu]NCPRG-NH2; linker N-5 via X1), the “Anti-Antidiuretic pA2” value under setting [1] is reported as 8.22.
For the compound `CC[C@@H](C)[C@H]1NC(=O)CC2(CCCCC2)SSC[C@@H](C(=O)N2CCC[C@H]2C(=O)N[C@@H](CCCN)C(=O)NCC(N)=O)NC(=O)[C@H](CC(N)=O)NC(=O)[C@H](C(C)C)NC(=O)[C@H](Cc2ccccc2)NC1=O` [d(CH2)5 D-Ile^2 Val^4 Orn^8 VP] ([dI]FVNCP[Orn]G-NH2; linker N-5 via X1), the “Anti-Antidiuretic pA2” value under setting [1] is on record as 7.66.
As for `C[C@@H](O)[C@@H]1NC(=O)[C@H](Cc2ccccc2)NC(=O)[C@@H](Cc2ccccc2)NC(=O)CC2(CCCCC2)SSC[C@@H](C(=O)N2CCC[C@H]2C(=O)N[C@@H](CCCNC(=N)N)C(=O)NCC(N)=O)NC(=O)[C@H](CC(N)=O)NC1=O` [d(CH2)5 D-Phe^2 Thr^4 AVP, [1-(β-mercapto-β,β-cyclopentamethylenepropionic acid), 2-D-phenylalanine, 4-threonine]-arginine vasopressin] ([dF]FTNCPRG-NH2; linker N-5 via X1), the “Anti-Antidiuretic pA2” value under setting [1] is 7.62.
Consider `N=C(N)NCCC[C@H](NC(=O)[C@@H]1CCCN1C(=O)[C@@H]1CSSC2(CCCCC2)CC(=O)N[C@H](Cc2ccccc2)C(=O)N[C@@H](Cc2ccccc2)C(=O)N[C@@H](Cc2ccc(O)cc2)C(=O)N[C@@H](CC(N)=O)C(=O)N1)C(=O)NCC(N)=O` [d(CH2)5 D-Phe^2 Tyr^4 AVP, [1-(β-mercapto-β,β-cyclopentamethylenepropionic acid), 2-D-phenylalanine, 4-tyrosine]-arginine vasopressin] ([dF]FYNCPRG-NH2; linker N-5 via X1), for which, under setting [1], the “Anti-Antidiuretic pA2” value was ~ 5.57.
Regarding `CC(C)[C@@H]1NC(=O)[C@H](Cc2ccccc2)NC(=O)[C@@H](Cc2ccc(O)cc2)NC(=O)CC2(CCCCC2)SSC[C@@H](C(=O)N2CCC[C@H]2C(=O)N[C@@H](CCCNC(=N)N)C(=O)NCC(N)=O)NC(=O)[C@H](CC(N)=O)NC1=O` [d(CH2)5 --D-TyrVAVP, [1-(β-mercapto-β,β-cyclopentamethylenepropionic acid), 2-D-tyrosine, 4-valine]-arginine vasopressin] ([dY]FVNCPRG-NH2; linker N-5 via X1), the “Anti-Antidiuretic pA2” value (Table 1, estimated in vivo pA2, volume of distribution 67 ml/kg) is on record as 7.51 ± 0.08.
Regarding `CC[C@@H](C)[C@H]1NC(=O)CC2(CCCCC2)SSC[C@@H](C(=O)N2CCC[C@H]2C(=O)N[C@@H](CCCNC(=N)N)C(=O)NCC(N)=O)NC(=O)[C@H](CC(N)=O)NC(=O)[C@H](CC(C)C)NC(=O)[C@H](Cc2ccccc2)NC1=O` [d(CH2)5 D-Ile^2 Leu^4 AVP, [1-(β-mercapto-β,β-cyclopentamethylenepropionic acid), 2-D-isoleucine, 4-leucine]-arginine vasopressin] ([dI]FLNCPRG-NH2; linker N-5 via X1), the “Anti-Antidiuretic pA2” value under setting [1] is given as 6.80.
On to `N=C(N)NCCC[C@H](NC(=O)[C@@H]1CCCN1C(=O)[C@@H]1CSSC2(CCCCC2)CC(=O)N[C@H](Cc2ccccc2)C(=O)N[C@@H](Cc2ccccc2)C(=O)N[C@@H](CC2CCCCC2)C(=O)N[C@@H](CC(N)=O)C(=O)N1)C(=O)NCC(N)=O` [d(CH2)5 D-Phe^2 Cha^4 AVP, [1-(β-mercapto-β,β-cyclopentamethylenepropionic acid), 2-D-phenylalanine, 4-cyclohexylalanine]-arginine vasopressin] ([dF]F[Cha]NCPRG-NH2; linker N-5 via X1), for which the “Anti-Antidiuretic pA2” value under setting [1] is given as 7.19.
On the same count and under the same terms, in the case of `N=C(N)NCCC[C@H](NC(=O)[C@@H]1CCCN1C(=O)[C@@H]1CSSC2(CCCCC2)CC(=O)N[C@H](Cc2ccccc2)C(=O)N[C@@H](Cc2ccccc2)C(=O)N[C@@H](CCC(N)=O)C(=O)N[C@@H](CC(N)=O)C(=O)N1)C(=O)NCC(N)=O` [d(CH2)5 D-Phe^2 AVP, [1-(β-mercapto-β,β-cyclopentamethylenepropionic acid), 2-D-phenylalanine]-arginine vasopressin] ([dF]FQNCPRG-NH2; linker N-5 via X1) it was 7.21.
